Where “and” joins values, the source holds several entries; their conditions need not be identical. Equal values may be shown once. Toxic doses and inconclusive results are not listed. Rule as the data show it: active = T/C of 150% or more; inactive = T/C below 125%.
Test system: L1210 leukemia ip in BDF1 mice, survival T/C
Test: NCI In Vivo Anticancer Drug Screen. Data for tumor model L1210 Leukemia (intraperitoneal) in B6D2F1 (BDF1) mice
Conditions: endpoint: mean survival time, higher = longer survival
Outline: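 Read-out is survival time, reported as the treated-group measurement over the vehicle-control measurement.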

[1] = dose: 100.0 mg/kg/injection, schedule: Q01DX009 (ip), vehicle: saline with Tween-80
[2] = dose: 100.0 mg/kg/injection, schedule: Q04DX003 (ip), vehicle: other
[3] = dose: 200.0 mg/kg/injection, schedule: Q01DX009 (ip), vehicle: saline with Tween-80
[4] = dose: 200.0 mg/kg/injection, schedule: Q04DX003 (ip), vehicle: other
[5] = dose: 400.0 mg/kg/injection, schedule: Q04DX003 (ip), vehicle: other
[6] = dose: 100.0 mg/kg/injection, schedule: Q01DX001 (ip), vehicle: Klucel (hydroxypropylcellulose) (HPC)
[7] = dose: 100.0 mg/kg/injection, schedule: Q01DX009 (ip), vehicle: Klucel (hydroxypropylcellulose) (HPC)
[8] = dose: 100.0 mg/kg/injection, schedule: Q04DX002 (ip), vehicle: Klucel (hydroxypropylcellulose) (HPC)
[9] = dose: 100.0 mg/kg/injection, schedule: Q04DX003 (ip), vehicle: Klucel (hydroxypropylcellulose) (HPC)
[10] = dose: 200.0 mg/kg/injection, schedule: Q01DX001 (ip), vehicle: Klucel (hydroxypropylcellulose) (HPC)
[11] = dose: 200.0 mg/kg/injection, schedule: Q01DX009 (ip), vehicle: Klucel (hydroxypropylcellulose) (HPC)
[12] = dose: 200.0 mg/kg/injection, schedule: Q04DX002 (ip), vehicle: Klucel (hydroxypropylcellulose) (HPC)
[13] = dose: 200.0 mg/kg/injection, schedule: Q04DX003 (ip), vehicle: Klucel (hydroxypropylcellulose) (HPC)
[14] = dose: 400.0 mg/kg/injection, schedule: Q01DX001 (ip), vehicle: Klucel (hydroxypropylcellulose) (HPC)
[15] = dose: 400.0 mg/kg/injection, schedule: Q01DX009 (ip), vehicle: Klucel (hydroxypropylcellulose) (HPC)
[16] = dose: 400.0 mg/kg/injection, schedule: Q04DX002 (ip), vehicle: Klucel (hydroxypropylcellulose) (HPC)
[17] = dose: 400.0 mg/kg/injection, schedule: Q04DX003 (ip), vehicle: Klucel (hydroxypropylcellulose) (HPC)

Measured: T/C

O=C1C=CCC2c3nc4ccccc4cc3CN12 (stereo not drawn)
inactive: dose: 37.5 mg/kg/injection, schedule: Q04DX003 (ip), vehicle: saline 95 % of control | dose: 75.0 mg/kg/injection, schedule: Q04DX003 (ip), vehicle: saline 93 % of control | dose: 150.0 mg/kg/injection, schedule: Q04DX003 (ip), vehicle: saline 95 % of control

Cc1nnc(N)s1
inactive: dose: 100.0 mg/kg/injection, schedule: Q01DX001 (ip), vehicle: other 102 % of control | [1] 95 % of control | [2] 104 % of control | dose: 200.0 mg/kg/injection, schedule: Q01DX001 (ip), vehicle: other 102 % of control | [3] 92 % of control | [4] 95 % of control | dose: 400.0 mg/kg/injection, schedule: Q01DX001 (ip), vehicle: other 100 % of control | dose: 400.0 mg/kg/injection, schedule: Q01DX009 (ip), vehicle: saline with Tween-80 93 % of control | [5] 98 % of control

Cc1ccc(S(=O)(=O)OCC2CC3CCC2C3)cc1 (stereo not drawn)
inactive: [2] 91 % of control | [4] 94 % of control | [5] 98 % of control

CCCOC(=O)CCl
inactive: dose: 100.0 mg/kg/injection, schedule: Q01DX001 (ip), vehicle: saline 113 % of control

O=C(Nc1nccs1)c1ccc(C(=O)Nc2nccs2)cc1
inactive: dose: 15.0 mg/kg/injection, schedule: Q01DX Z (ip), vehicle: carboxymethylcellulose (CMC) 93 % of control | dose: 30.0 mg/kg/injection, schedule: Q01DX Z (ip), vehicle: carboxymethylcellulose (CMC) 100 % of control | dose: 60.0 mg/kg/injection, schedule: Q01DX Z (ip), vehicle: carboxymethylcellulose (CMC) 100 % of control | dose: 120.0 mg/kg/injection, schedule: Q01DX Z (ip), vehicle: carboxymethylcellulose (CMC) 100 % of control and 90 % of control | dose: 180.0 mg/kg/injection, schedule: Q01DX Z (ip), vehicle: carboxymethylcellulose (CMC) 96 % of control | dose: 270.0 mg/kg/injection, schedule: Q01DX Z (ip), vehicle: carboxymethylcellulose (CMC) 96 % of control | dose: 400.0 mg/kg/injection, schedule: Q01DX Z (ip), vehicle: carboxymethylcellulose (CMC) 95 % of control

CCCCOC(=O)Nc1ccc(N)c(NC(=O)OCCCC)n1
inactive: dose: 100.0 mg/kg/injection, schedule: Q01DX009 (ip), vehicle: gum acacia 88 % of control | dose: 100.0 mg/kg/injection, schedule: Q04DX003 (ip), vehicle: gum acacia 99 % of control | dose: 200.0 mg/kg/injection, schedule: Q01DX009 (ip), vehicle: gum acacia 93 % of control | dose: 200.0 mg/kg/injection, schedule: Q04DX003 (ip), vehicle: gum acacia 99 % of control | dose: 400.0 mg/kg/injection, schedule: Q01DX009 (ip), vehicle: gum acacia 91 % of control | dose: 400.0 mg/kg/injection, schedule: Q04DX003 (ip), vehicle: gum acacia 97 % of control

CCc1ccccc1NC(=O)SCc1ccccc1
inactive: [6] 91 % of control | [7] 100 % of control and 90 % of control | [8] 95 % of control and 109 % of control | [9] 87 % of control | [10] 94 % of control | [11] 90 % of control | [12] 97 % of control and 102 % of control | [13] 102 % of control | [14] 89 % of control | [15] 108 % of control and 90 % of control | [16] 92 % of control and 105 % of control | [17] 98 % of control

Nc1ccccc1CSc1nc2nc[nH]c(=O)c2[nH]1
inactive: [9] 95 % of control | [13] 95 % of control

CC1(O)c2ccccc2-c2nc3ccccc3nc21 (stereo not drawn)
inactive: dose: 50.0 mg/kg/injection, schedule: Q01DX009 (ip), vehicle: saline sonified 89 % of control | dose: 100.0 mg/kg/injection, schedule: Q01DX009 (ip), vehicle: saline sonified 102 % of control | dose: 100.0 mg/kg/injection, schedule: Q04DX003 (ip), vehicle: saline sonified 94 % of control | dose: 200.0 mg/kg/injection, schedule: Q01DX009 (ip), vehicle: saline sonified 102 % of control | dose: 200.0 mg/kg/injection, schedule: Q04DX003 (ip), vehicle: saline sonified 110 % of control | dose: 400.0 mg/kg/injection, schedule: Q04DX003 (ip), vehicle: saline sonified 87 % of control

CC(C)c1cccc(C(C)C)c1OC(=O)Nc1ccccc1Cl
inactive: [7] 105 % of control | [9] 100 % of control | [11] 89 % of control | [13] 102 % of control | [15] 89 % of control | [17] 103 % of control

O=[N+]([O-])c1ccc(N2CCCC2)nc1
inactive: dose: 100.0 mg/kg/injection, schedule: Q01DX001 (ip), vehicle: saline with Tween-80 107 % of control | dose: 200.0 mg/kg/injection, schedule: Q01DX001 (ip), vehicle: saline with Tween-80 93 % of control | dose: 400.0 mg/kg/injection, schedule: Q01DX001 (ip), vehicle: saline with Tween-80 100 % of control

O=C(Nc1cccc([N+](=O)[O-])c1)c1ccc(Cl)cc1Cl
inactive: dose: 100.0 mg/kg/injection, schedule: Q04DX003 (ip), vehicle: saline with Tween-80 102 % of control | dose: 200.0 mg/kg/injection, schedule: Q04DX003 (ip), vehicle: saline with Tween-80 93 % of control | dose: 400.0 mg/kg/injection, schedule: Q04DX003 (ip), vehicle: saline with Tween-80 98 % of control

CC(C)(C)c1ccc(P(=O)(O)C(C)(C)C)cc1
inactive: dose: 75.0 mg/kg/injection, schedule: Q01DX001 (ip), vehicle: saline 96 % of control | dose: 150.0 mg/kg/injection, schedule: Q01DX001 (ip), vehicle: saline 102 % of control

CC(=O)OC(C#N)c1cccc([N+](=O)[O-])c1 (stereo not drawn)
inactive: dose: 6.25 mg/kg/injection, schedule: Q04DX002 (ip), vehicle: Klucel (hydroxypropylcellulose) (HPC) 97 % of control | dose: 12.5 mg/kg/injection, schedule: Q04DX002 (ip), vehicle: Klucel (hydroxypropylcellulose) (HPC) 102 % of control | dose: 25.0 mg/kg/injection, schedule: Q04DX002 (ip), vehicle: Klucel (hydroxypropylcellulose) (HPC) 100 % of control and 92 % of control

C[P+]1(c2ccccc2)CCC(N)=C(C#N)C1 (stereo not drawn)
inactive: dose: 100.0 mg/kg/injection, schedule: Q04DX002 (ip), vehicle: saline with Tween-80 100 % of control

Cc1cc(C)c(NC(=O)c2ccc(Cl)cc2Cl)c(C)c1
inactive: [8] 95 % of control | [12] 106 % of control | [16] 95 % of control

COc1ccc(C)cc1NC(=O)SCCSC(=O)Nc1cc(C)ccc1OC
inactive: [1] 100 % of control | [3] 87 % of control

CCCCCCCCCCCCOc1ccc(Sc2ccc([N+](=O)[O-])cc2)cc1
inactive: [6] 95 % of control | [10] 87 % of control | [14] 90 % of control

COc1cccc(OC)c1OC
inactive: dose: 87.5 mg/kg/injection, schedule: Q01DX009 (ip), vehicle: Klucel (hydroxypropylcellulose) (HPC) 106 % of control | dose: 175.0 mg/kg/injection, schedule: Q01DX009 (ip), vehicle: Klucel (hydroxypropylcellulose) (HPC) 100 % of control | dose: 350.0 mg/kg/injection, schedule: Q01DX009 (ip), vehicle: Klucel (hydroxypropylcellulose) (HPC) 97 % of control

— PubChem BioAssay AID248 (DTP/NCI, 2004)
